Measured values published in the supplement of paper PMC10883282.
Where a name gives a salt, the structure may show the parent alone. ± gives the standard deviation of the averaged measurements.

System: RD
Assay: relative viability vs DMSO control (72 h) (fraction); higher = more viable cells
Outline: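 ATPLite readings, expressed as percent growth and averaged over up to triplicate wells, provided relative viability. Before reading, sarcoma cell lines seeded in 384-well plates to reach 80–90% confluence received 2.5 µl of serially diluted compound after 24 h, from source plates of 10 mM to 0.0002 mM. Plates were held 72 h at 37 °C, 5% CO2, with 0.1% DMSO as vehicle and a 5 µM positive control. The data were rescaled to 1 for full and 0 for none.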

Row | SMILES | relative viability (0.00017 µM) | relative viability (0.00051 µM) | relative viability (0.00152 µM) | relative viability (0.00457 µM) | relative viability (0.01372 µM) | relative viability (0.04115 µM) | relative viability (0.1235 µM) | relative viability (0.3704 µM) | relative viability (1.111 µM) | relative viability (3.333 µM) | relative viability (10 µM)
1 | C[C@@H]1COCCN1c1cc(-c2ccnn2C)c2ccnc(-c3ccn[nH]3)c2n1 | 1.08 ± 0.059 | 1.09 ± 0.027 | 1.09 ± 0.083 | 1.12 ± 0.065 | 1.1 ± 0.037 | 1.08 ± 0.046 | 0.93 ± 0.03 | 0.627 ± 0.025 | 0.378 ± 0.018 | 0.23 ± 0.017 | 0.188 ± 0.011
2 | CCN1CCN(Cc2ccc(Nc3ncc(F)c(-c4cc(F)c5nc(C)n(C(C)C)c5c4)n3)nc2)CC1 [Abemaciclib] | 1.12 ± 0.06 | 1.14 ± 0.056 | 1.09 ± 0.05 | 1.11 ± 0.054 | 1.1 ± 0.059 | 1.07 ± 0.081 | 1.06 ± 0.078 | 1.07 ± 0.036 | 1.1 ± 0.072 | 1.04 ± 0.049 | 0.863 ± 0.039
3 | CCc1cc2c(cc1N1CCC(N3CCOCC3)CC1)C(C)(C)c1[nH]c3cc(C#N)ccc3c1C2=O [Alectinib] | 1.12 ± 0.056 | 1.09 ± 0.022 | 1.09 ± 0.051 | 1.1 ± 0.044 | 1.11 ± 0.049 | 1.11 ± 0.038 | 1.13 ± 0.045 | 1.11 ± 0.044 | 1.09 ± 0.024 | 1.054 ± 0.0068 | 1.05 ± 0.037
4 | Cc1nc(NC(=O)N2CCC[C@H]2C(N)=O)sc1-c1ccnc(C(C)(C)C(F)(F)F)c1 [Alpelisib] | 1.04 ± 0.032 | 1.068 ± 0.0091 | 1.04 ± 0.056 | 1.07 ± 0.041 | 1.05 ± 0.052 | 1.03 ± 0.1 | 0.932 ± 0.045 | 0.851 ± 0.083 | 0.7 ± 0.055 | 0.594 ± 0.024 | 0.557 ± 0.044
5 | Cn1cc(-c2cc3c(N4CCN(c5ncc([C@@](C)(N)c6ccc(F)cc6)cn5)CC4)ncnn3c2)cn1 [Avapritinib] | 1.04 ± 0.055 | 1.03 ± 0.031 | 1.06 ± 0.02 | 1.05 ± 0.041 | 1.05 ± 0.033 | 1.03 ± 0.045 | 1.04 ± 0.02 | 1.06 ± 0.043 | 1.03 ± 0.043 | 0.939 ± 0.03 | 0.813 ± 0.087
6 | CC(C)NC(=O)C1CCC(n2c(NC(=O)c3ccc(F)cc3)nc3ccc(CN4CCC(C(C)(C)O)CC4)cc32)CC1 (stereo not drawn) [Belizatinib] | 1.1 ± 0.05 | 1.09 ± 0.06 | 1.08 ± 0.079 | 1.09 ± 0.02 | 1.09 ± 0.041 | 1.09 ± 0.025 | 1 ± 0.014 | 0.844 ± 0.058 | 0.456 ± 0.027 | 0.268 ± 0.0066 | 0.122 ± 0.011
7 | Cn1cnc2c(F)c(Nc3ccc(Br)cc3F)c(C(=O)NOCCO)cc21 [Binimetinib] | 1.01 ± 0.049 | 1 ± 0.04 | 0.978 ± 0.037 | 0.89 ± 0.054 | 0.798 ± 0.05 | 0.746 ± 0.028 | 0.677 ± 0.016 | 0.627 ± 0.036 | 0.588 ± 0.015 | 0.534 ± 0.035 | 0.507 ± 0.012
8 | Nc1cc(C(F)(F)F)c(-c2cc(N3CCOCC3)nc(N3CCOCC3)n2)cn1 [Buparlisib] | 1.09 ± 0.015 | 1.06 ± 0.025 | 1.09 ± 0.055 | 1.08 ± 0.05 | 1.07 ± 0.028 | 1.09 ± 0.045 | 1 ± 0.046 | 0.868 ± 0.045 | 0.428 ± 0.042 | 0.133 ± 0.011 | 0.126 ± 0.015
9 | CNC(=O)c1ccc(-c2cnc3ncc(Cc4ccc5ncccc5c4)n3n2)cc1F [Capmatinib] | 1.11 ± 0.025 | 1.1 ± 0.053 | 1.13 ± 0.037 | 1.15 ± 0.065 | 1.12 ± 0.028 | 1.12 ± 0.042 | 1.13 ± 0.077 | 1.14 ± 0.053 | 1.15 ± 0.072 | 1.13 ± 0.12 | 1.1 ± 0.1
10 | COc1cc2c(Oc3ccc4[nH]c(C)cc4c3F)ncnc2cc1OCCCN1CCCC1 [Cediranib] | 1.09 ± 0.043 | 1.1 ± 0.058 | 1.09 ± 0.015 | 1.15 ± 0.057 | 1.09 ± 0.076 | 1.13 ± 0.046 | 1.1 ± 0.03 | 1.04 ± 0.06 | 1 ± 0.077 | 1.03 ± 0.13 | 0.962 ± 0.078
11 | COc1c(OCCCN2CCOCC2)ccc2c1N=C(NC(=O)c1cnc(N)nc1)N1CCN=C21 [Copanlisib] | 1.07 ± 0.038 | 1.06 ± 0.032 | 1.07 ± 0.082 | 0.77 ± 0.053 | 0.741 ± 0.098 | 0.61 ± 0.01 | 0.438 ± 0.019 | 0.328 ± 0.011 | 0.268 ± 0.013 | 0.225 ± 0.014 | 0.184 ± 0.015
12 | CN1CCN(c2ccc3nc(-c4c(N)c5c(F)cccc5[nH]c4=O)[nH]c3c2)CC1 [Dovitinib] | 0.963 ± 0.05 | 0.983 ± 0.064 | 0.991 ± 0.072 | 0.985 ± 0.053 | 0.978 ± 0.099 | 0.995 ± 0.074 | 0.998 ± 0.071 | 0.99 ± 0.072 | 0.812 ± 0.073 | 0.632 ± 0.05 | 0.113 ± 0.035
13 | COc1cccc2c1C(=O)c1c(O)c3c(c(O)c1C2=O)C[C@@](O)(C(=O)CO)C[C@@H]3O[C@H]1C[C@H](N)[C@H](O)[C@H](C)O1 [Doxorubicin Hydrochloride] | 1.12 ± 0.074 | 1.09 ± 0.068 | 1.12 ± 0.069 | 1.08 ± 0.072 | 1.1 ± 0.028 | 0.892 ± 0.011 | 0.556 ± 0.019 | 0.214 ± 0.015 | 0.0954 ± 0.008 | 0.0741 ± 0.0052 | 0.0196 ± 0.00075
14 | Cc1cnc(Nc2ccc(OCCN3CCCC3)cc2)nc1Nc1cccc(S(=O)(=O)NC(C)(C)C)c1 [Fedratinib] | 1.07 ± 0.031 | 1.09 ± 0.03 | 1.12 ± 0.042 | 1.13 ± 0.048 | 1.12 ± 0.064 | 1.14 ± 0.058 | 1.09 ± 0.09 | 0.785 ± 0.066 | 0.445 ± 0.025 | 0.0678 ± 0.011 | 0.00303 ± 0.0004
15 | C=CC(=O)N1CCC[C@@H](n2nc(-c3ccc(Oc4ccccc4)cc3)c3c(N)ncnc32)C1 [Ibrutinib] | 1.08 ± 0.04 | 1.11 ± 0.053 | 1.09 ± 0.032 | 1.13 ± 0.07 | 1.14 ± 0.063 | 1.12 ± 0.054 | 1.15 ± 0.062 | 1.15 ± 0.079 | 1.14 ± 0.083 | 1.13 ± 0.037 | 0.984 ± 0.058
16 | CC[C@H](Nc1ncnc2[nH]cnc12)c1nc2cccc(F)c2c(=O)n1-c1ccccc1 [Idelalisib] | 1.08 ± 0.039 | 1.11 ± 0.035 | 1.12 ± 0.06 | 1.13 ± 0.042 | 1.13 ± 0.036 | 1.13 ± 0.039 | 1.1 ± 0.076 | 1.12 ± 0.062 | 1.1 ± 0.066 | 1.04 ± 0.06 | 0.927 ± 0.029
17 | O=C(Cc1ccc(-c2ccc(OCCN3CCOCC3)cc2)cn1)NCc1ccccc1 [KX2-391] | 1.03 ± 0.04 | 1.07 ± 0.055 | 1.08 ± 0.04 | 1.07 ± 0.066 | 1.02 ± 0.022 | 0.633 ± 0.022 | 0.346 ± 0.077 | 0.296 ± 0.015 | 0.304 ± 0.0065 | 0.308 ± 0.027 | 0.286 ± 0.034
18 | O=C(Nc1cnn2ccc(N3CCC[C@@H]3c3cc(F)ccc3F)nc12)N1CC[C@H](O)C1 [Larotrectinib] | 1.07 ± 0.035 | 1.092 ± 0.0046 | 1.09 ± 0.059 | 1.1 ± 0.05 | 1.11 ± 0.042 | 1.1 ± 0.11 | 1.13 ± 0.051 | 1.12 ± 0.073 | 1.13 ± 0.037 | 1.1 ± 0.068 | 1.09 ± 0.12
